This is an account of results in US9718796B2, “Substituted benzoazepines as toll-like receptor modulators” (VENTIRX PHARMACEUTICALS, INC., priority 2011, dated 2017).

Read-outs that look alike come from different tables or passages of the source.

For orientation: IC50 means the concentration needed to halve the response being measured.

In experiment [1] the test system is IL-8 production in human PBMC stimulated with CL075. Briefly: Human PBMC assay: inhibition of IL-8 production stimulated with CL075 (ELISA). Format: cell-based. The settings on record: 3 to 1000 nM antagonist, 2 hours before CL075 100 ng/ML (400 nM), overnight; one donor, duplicate wells. Here is the method:
PBMCs contain a mixture of cells including monocytes and myeloid dendritic cells (mDCs) that express TLR8. […] The ability of TLR8 antagonists to inhibit […] in human PBMCs was evaluated. […] Data shown in FIG. 1 are a representative experiment from one donor evaluated in duplicate culture wells. […] At the end of the incubation, cells were centrifuged and cell culture supernatants were analyzed for IL-8 by ELISA (eBiosciene kit) per the manufacturer's instructions.
The experiment shown in FIG. 1 was repeated in multiple donors and with additional TLR8 antagonist molecules (see FIG. 2). […] Percent inhibition is shown on the y-axis and concentrations of TLR8 antagonists (3-1000 nM) are shown on the x-axis in FIG. 2.

The target in another experiment is T1, hTLR8 (Homo sapiens, UniProt Q9NR97).
T1 construct: host or cells: HEK293 cells stably transfected with hTLR8
T1 sequence (Q9NR97 27-1041): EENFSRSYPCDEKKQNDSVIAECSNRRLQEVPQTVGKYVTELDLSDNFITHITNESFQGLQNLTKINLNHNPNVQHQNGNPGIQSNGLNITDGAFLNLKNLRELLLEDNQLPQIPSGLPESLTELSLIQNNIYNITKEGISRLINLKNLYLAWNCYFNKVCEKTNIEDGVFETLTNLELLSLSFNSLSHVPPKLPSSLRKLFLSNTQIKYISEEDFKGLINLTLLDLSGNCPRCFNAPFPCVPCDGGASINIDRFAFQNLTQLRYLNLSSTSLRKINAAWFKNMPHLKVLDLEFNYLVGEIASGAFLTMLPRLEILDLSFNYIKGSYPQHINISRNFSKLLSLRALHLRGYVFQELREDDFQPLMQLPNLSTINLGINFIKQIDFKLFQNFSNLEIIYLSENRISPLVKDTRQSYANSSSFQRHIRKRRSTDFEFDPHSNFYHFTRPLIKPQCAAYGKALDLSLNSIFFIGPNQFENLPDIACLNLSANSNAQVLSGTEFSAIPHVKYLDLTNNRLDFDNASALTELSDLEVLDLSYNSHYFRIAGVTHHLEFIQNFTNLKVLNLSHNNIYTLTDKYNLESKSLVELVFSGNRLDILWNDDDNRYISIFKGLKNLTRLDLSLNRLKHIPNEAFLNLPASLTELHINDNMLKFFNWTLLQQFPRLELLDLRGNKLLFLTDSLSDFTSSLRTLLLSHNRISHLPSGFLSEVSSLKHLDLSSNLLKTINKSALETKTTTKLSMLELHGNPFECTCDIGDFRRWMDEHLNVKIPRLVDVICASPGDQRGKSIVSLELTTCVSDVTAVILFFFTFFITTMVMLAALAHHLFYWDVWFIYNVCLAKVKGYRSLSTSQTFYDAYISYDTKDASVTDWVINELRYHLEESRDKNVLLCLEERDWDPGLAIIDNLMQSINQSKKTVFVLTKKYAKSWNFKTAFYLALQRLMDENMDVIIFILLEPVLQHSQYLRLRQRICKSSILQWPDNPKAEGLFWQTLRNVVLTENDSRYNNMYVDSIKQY
Briefly: HEK-293 hTLR8 transfectant antagonist assay (NF-κB driven SEAP reporter). Format: cell-based. The settings on record: hTLR8 reporter cells. As to the method: The HEK-293 hTLR transfectant assay employs HEK293 cells stably transfected with various hTLRs and transiently co-transfected with a plasmid containing an NF-κB driven secreted embryonic alkaline phosphate (SEAP) reporter gene. Stimulation of TLRs activates their downstream signaling pathways and induces nuclear translocation of the transcription factor NF-κB. Reporter gene activity is then measured using a spectrophotometric assay. To measure antagonist activity, human embryonic kidney (HEK) cells (e.g., 293XL-hTLR8 cells available from InvivoGen, San Diego, Calif.) are prepared according to supplier's instructions and incubated with various concentrations of test compound overnight. The amount of induced […] is measured by reading the absorbance at 650 nm. The compounds of the invention have an MC50 of 25 μM or less, wherein MC50 is defined as the concentration at which 50% of maximum induction is seen. For the TLR8 antagonist assays, cells are transiently transfected with the reporter gene on Day 1 per the supplier's instructions. Antagonist compounds are added to the cultures on Day 2 followed by addition of a TLR8 agonist approximately 2 hours later. Cultures are incubated overnight and SEAP activity is measured on Day 3. In a typical assay, 50,000 HEK239 hTLR8 cells are seeded per culture well and transiently transfected with the SEAP reporter gene. Antagonists are added to cultures in culture medium and […] DMSO over a concentration range of 0.1 nanomolar to 10 micromolar. TLR8 agonists are added to cultures 2 hours later at a fixed concentration (e.g., 1 micromolar or 10 micromolar of Compound A) and cultures are then incubated for 16-24 hrs at 37° C. in a humidified CO incubator. Antagonists are also evaluated for activity in the absence of agonist. TLR8 antagonist activity was measured in a hTLR8 assay format, measuring IC50 values. […] IC50s were then calculated.

Where [2] appears, read: IC50, nM, vs. 3M002 10 μM, agonist 3M002 10 μM.
Where [3] appears, read: IC50, nM, vs. VTX-378 1 μM, TLR8 agonist VTX-378 (Compound A) 1 μM.
Setting [4] is: TLR8 agonist VTX-378 (Compound A) 0.5 μM, read-out: IC50, nM, vs. VTX-378 0.5 μM.
[5] abbreviates: IC50, nM, vs. VTX-378 10 μM, TLR8 agonist VTX-378 (Compound A) 10 μM.
[6] abbreviates: IC50, nM, vs. 3M002 1 μM, agonist 3M002 1 μM.

For the molecule `CCOC(=O)C1=Cc2cc(-c3ccc(C(=O)N4CCCC4)cc3)ccc2N=C(N)C1(C)C` [Compound 3348, Ethyl 2-amino-3,3-dimethyl-7-[4-(pyrrolidin-1-ylcarbonyl)phenyl]-3H-1-benzazepine-4-carboxylate], the “IL-8 levels in human PBMC stimulated with CL075 (FIG. 1)” value (“IL-8 levels in human PBMC stimulated” for short) in experiment [1] was “reduced in a dose dependent fashion”.

As to `CCOC(=O)C1=Cc2cc(-c3ccccc3OC)ccc2N=C(N)C1` [Compound 3264, Ethyl 2-amino-7-(2-methoxyphenyl)-3H-1-benzazepine-4-carboxylate], the 50% inhibitory concentration (IC50) on hTLR8 (setting [2]), at hTLR8 (setting [3]) and on hTLR8 (setting [4]) was less than 1000 nM each time.

Regarding `CCOC(=O)C1=Cc2cc(Oc3ccccc3)ccc2N=C(N)C1` [Compound 2946], the IC50 on hTLR8 (setting [3]) was 1000 to 10000 nM; on hTLR8 (setting [5]), not below 10000 nM.

As for `CCOC(=O)C1=Cc2cc(-c3ccc(C(=O)N4CCCC4)cc3)ccc2N=C(NOC)C1` [Compound 2930], the IC50 at hTLR8 (setting [3]) and on hTLR8 (setting [5]) was not below 10000 nM throughout.

On to `CCOC(=O)C1=Cc2cc(-c3ccc(N4CCOC4=O)cc3)ccc2N=C(N)C1` [Compound 3300, Ethyl 2-amino-7-[4-(2-oxo-1,3-oxazolidin-3-yl)phenyl]-3H-1-benzazepine-4-carboxylate], for which the IC50 on hTLR8 (setting [6]), at hTLR8 (setting [2]), at hTLR8 (setting [3]) and on hTLR8 (setting [4]) was less than 1000 nM each time.

In the case of `CCOC(=O)Nc1ccc(-c2ccc3c(c2)C=C(C(=O)OCC)CC(N)=N3)c(Cl)c1` [Compound 3261, Ethyl 2-amino-7-{2-chloro-4-[(ethoxycarbonyl)amino]phenyl}-3H-1-benzazepine-4-carboxylate], the IC50 on hTLR8 (setting [2]), at hTLR8 (setting [3]) and on hTLR8 (setting [4]) was less than 1000 nM throughout. The “IL-8 levels in human PBMC stimulated” value in experiment [1] was “reduced in a dose dependent fashion”.

On to `NC1=Nc2ccc(-c3ccc(C(=O)N4CCCC4)cc3)cc2C=C(Br)C1` [Compound 3444], for which the IC50 on hTLR8 (setting [3]) and on hTLR8 (setting [4]) was less than 1000 nM each time.

As for `CCOC(=O)C1=Cc2cc(Oc3ccccc3C)ccc2N=C(N)C1` [Compound 3128], the IC50 at hTLR8 (setting [6]) is less than 1000 nM; on hTLR8 (setting [2]), 1000 to 10000 nM; at hTLR8 (setting [3]), 1000 to 10000 nM; on hTLR8 (setting [4]), less than 1000 nM.

On to `CCCN(CC(N)=O)C(=O)C1=Cc2cc(-c3ccc(C(=O)N4CCCC4)cc3Cl)ccc2N=C(N)C1` [Compound 3342, 2-Amino-N-(2-amino-2-oxoethyl)-7-[2-chloro-4-(pyrrolidin-1-ylcarbonyl)phenyl]-N-propyl-3H-1-benzazepine-4-carboxamide], for which the IC50 at hTLR8 (setting [2]), on hTLR8 (setting [3]) and at hTLR8 (setting [4]) was less than 1000 nM throughout.

Take `CCOC(=O)C1=Cc2cc(-c3ccc(C(=O)N4CCCC4)cc3)ccc2N=C2NCCC12` (centres unmarked) [Compound 3448]: the IC50 at hTLR8 (setting [3]) and on hTLR8 (setting [4]) was less than 1000 nM throughout. Moreover, the “IL-8 levels in human PBMC stimulated” value in experiment [1] is reported as “reduced in a dose dependent fashion”.

Take `CCOC(=O)C1=Cc2cc(-c3cccc(OC)c3Cl)ccc2N=C(N)C1` [Compound 3386, Ethyl 2-amino-7-(2-chloro-3-methoxyphenyl)-3H-1-benzazepine-4-carboxylate]: the IC50 at hTLR8 (setting [3]) and on hTLR8 (setting [4]) was less than 1000 nM throughout.

As for `CCOC(=O)C1=Cc2cc(Nc3ccccc3)ccc2N=C(N)C1` [Compound 3097], the IC50 at hTLR8 (setting [2]) is 1000 to 10000 nM; at hTLR8 (setting [3]), 1000 to 10000 nM; on hTLR8 (setting [4]), less than 1000 nM.

In the case of `CCCN(CCC)C(=O)C1=Cc2cc(-c3ccc(C(=O)N4CCCC4)cc3)ccc2N=C(N)C1` [Compound 2987, 2-Amino-N,N-dipropyl-7-[4-(pyrrolidin-1-ylcarbonyl)phenyl]-3H-1-benzazepine-4-carboxamide], the “IL-8 levels in human PBMC stimulated” value in experiment [1] is “reduced in a dose dependent fashion”.

Consider `CCOC(=O)C1=Cc2cc(-c3ccc(N4CCOC4=O)cc3Cl)ccc2N=C(N)C1` [Compound 3387, Ethyl 2-amino-7-[2-chloro-4-(2-oxo-1,3-oxazolidin-3-yl)phenyl]-3H-1-benzazepine-4-carboxylate], for which the IC50 at hTLR8 (setting [2]), on hTLR8 (setting [3]) and at hTLR8 (setting [4]) was less than 1000 nM throughout. Besides, the “IL-8 levels in human PBMC stimulated” value in experiment [1] is given as “reduced in a dose dependent fashion”.

Turning to `CCOC(=O)C1=Cc2cc(-c3ccc(C(=O)N4CCCC4)cc3Cl)ccc2N=C(N)C1` [Compound 3322], the IC50 on hTLR8 (setting [2]), on hTLR8 (setting [3]) and at hTLR8 (setting [4]) was less than 1000 nM each time.

Regarding `CC(C)NC(=O)C1=Cc2cc(-c3ccc(C(=O)N4CCCC4)cc3)ccc2N=C(N)C1` [Compound 3009, 2-Amino-N-isopropyl-7-[4-(pyrrolidin-1-ylcarbonyl)phenyl]-3H-1-benzazepine-4-carboxamide], the results for the IC50 at hTLR8 (setting [3]) and on hTLR8 (setting [5]) were 1000 to 10000 nM and not below 10000 nM, respectively.

For `CCOC(=O)C1=Cc2cc(Oc3cccc(C(F)(F)F)c3)ccc2N=C(N)C1` [Compound 3046], the IC50 was 1000 to 10000 nM at hTLR8 (setting [2]), 1000 to 10000 nM on hTLR8 (setting [3]) and not below 10000 nM on hTLR8 (setting [5]).

Turning to `CCOC(=O)C1=Cc2cc(-c3ccc(S(=O)(=O)N(C)C)cc3)ccc2N=C(N)C1` [Compound 3055, Ethyl 2-amino-7-{4-[(dimethylamino)sulfonyl]phenyl}-3H-1-benzazepine-4-carboxylate], the IC50 at hTLR8 (setting [3]) is 1000 to 10000 nM; at hTLR8 (setting [5]), not below 10000 nM.

As to `CCOC(=O)C1=Cc2cc(-c3ccc(N4CCCC4=O)cc3)ccc2N=C(N)C1` [Compound 3190, Ethyl 2-amino-7-[4-(2-oxopyrrolidin-1-yl)phenyl]-3H-1-benzazepine-4-carboxylate], the figures for the IC50 at hTLR8 (setting [3]) and at hTLR8 (setting [4]) were 1000 to 10000 nM and less than 1000 nM, respectively.

On to `CCOC(=O)C1=Cc2cc(-c3ccc(C(=O)OCC)cc3)ccc2N=C(N)C1` [Compound 3101, Ethyl 2-amino-7-[4-(ethoxycarbonyl)phenyl]-3H-1-benzazepine-4-carboxylate], for which the results for the IC50 at hTLR8 (setting [2]), at hTLR8 (setting [3]) and on hTLR8 (setting [4]) were not below 10000 nM, not below 10000 nM and 1000 to 10000 nM, respectively.
